# From ChEMBL document CHEMBL5325418, “Studies on diketopiperazine and dipeptide analogs as opioid receptor ligands” (Eur J Med Chem, 2023)
# Active and inactive are the calls of the source. The calls are words filed in the database; no cut-off is given here. Square brackets hold non-standard residues; d marks the D form. Peptide text beside a SMILES is read from it. * marks the point of attachment. ξ: configuration not given here. ξPhe(3-OMe) = COc1cccc(CC(N)C(=O)O)c1; ξPhe(2-I) = NC(Cc1ccccc1I)C(=O)O; Nphe = O=C(O)CNCc1ccccc1; Boc = CC(C)(C)OC(=O)*
# Molecular target: Mu-type opioid receptor (Homo sapiens, UniProt P35372)
# Sequence (P35372 whole entry): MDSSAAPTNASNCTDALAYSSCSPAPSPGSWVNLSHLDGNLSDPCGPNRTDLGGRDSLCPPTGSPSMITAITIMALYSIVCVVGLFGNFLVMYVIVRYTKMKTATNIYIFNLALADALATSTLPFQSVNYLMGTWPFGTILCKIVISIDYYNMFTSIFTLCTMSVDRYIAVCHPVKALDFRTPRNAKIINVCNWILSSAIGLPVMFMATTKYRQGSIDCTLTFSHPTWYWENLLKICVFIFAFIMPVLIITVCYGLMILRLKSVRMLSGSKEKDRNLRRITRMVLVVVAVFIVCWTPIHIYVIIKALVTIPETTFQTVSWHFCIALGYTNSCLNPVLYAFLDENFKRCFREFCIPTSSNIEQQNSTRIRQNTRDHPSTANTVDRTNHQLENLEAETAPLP
# Test: Displacement of [3H]DAMGO from human MOR expressed in CHO cell membranes assessed as inhibition constant incubated for 60 mins by microbeta 2 scintillation counting method
# Set-up: species or system Cell membrane
# Conditions: not given
row,Compound,Ki
1,Cc1cccc(CC2NC(=O)CN(Cc3ccccc3)C2=O)c1I (stereo not given),> 10 µM
2,COC(=O)C(Cc1cccc(C)c1I)NC(=O)CNCc1ccccc1 (stereo not given),> 10 µM
3,COC(=O)C(Cc1cc(OC)cc(OC)c1I)NC(=O)CNCc1ccccc1 (stereo not given),> 10 µM
4,COC(=O)C(Cc1ccccc1I)NC(=O)CN(Cc1ccccc1)C(=O)OC(C)(C)C (stereo not given) (Boc-[Nphe]-[ξPhe(2-I)]-OMe),4.38 µM
5,COC(=O)C(Cc1cccc(OC)c1)NC(=O)CNCc1ccccc1 (stereo not given) (H-[Nphe]-[ξPhe(3-OMe)]-OMe),> 10 µM
6,COc1cccc(CC2NC(=O)CN(Cc3ccccc3)C2=O)c1C (stereo not given),> 10 µM
7,COc1cccc(CC2NC(=O)CN(Cc3ccccc3)C2=O)c1I (stereo not given),> 10 µM
8,COc1cccc(CC2NC(=O)[C@H](Cc3ccccc3)NC2=O)c1I (stereo not given in full),> 10 µM

# System: not listed separately
# Test: Metabolic stability in human plasma assessed as half life at 100 uM measured upto 24 hrs by LC-MS/MS analysis
# Type: ADME, cell-free
# Conditions: not given
row,Compound,half-life at 100 µM
1,COc1cccc(CC2NC(=O)CN(Cc3ccccc3)C2=O)c1C (stereo not given),> 24 h
2,COc1cccc(CC2NC(=O)CN(Cc3ccccc3)C2=O)c1I (stereo not given),> 24 h

# Same assay, conditions: 24 h, 100 µM
row,Compound,t1/2
1,COC(=O)C(Cc1cccc(C)c1I)NC(=O)CNCc1ccccc1 (stereo not given),2.4577 h

# System: not listed separately
# Test: Plasma protein binding in mouse assessed as bound fraction at 1 uM by LC-MS/MS analysis
# Type: ADME, cell-free
# Conditions: not given
row,Compound,PPB
1,COc1cccc(CC2NC(=O)CN(Cc3ccccc3)C2=O)c1C (stereo not given),86.29%
2,COc1cccc(CC2NC(=O)CN(Cc3ccccc3)C2=O)c1I (stereo not given),85.15%

# System: not listed separately
# Test: Plasma protein binding in human assessed as bound fraction at 1 uM by LC-MS/MS analysis
# Type: ADME, cell-free
# Conditions: not given
row,Compound,PPB
1,COC(=O)C(Cc1cccc(C)c1I)NC(=O)CNCc1ccccc1 (stereo not given),97.86%
2,COc1cccc(CC2NC(=O)CN(Cc3ccccc3)C2=O)c1C (stereo not given),80.46%
3,COc1cccc(CC2NC(=O)CN(Cc3ccccc3)C2=O)c1I (stereo not given),91.42%

# System: not listed separately
# Test: Metabolic stability in Sprague-Dawley rat plasma assessed as half life at 100 uM measured upto 24 hrs by LC-MS/MS analysis
# Type: ADME, cell-free
# Conditions: not given
row,Compound,half-life at 100 µM
1,COC(=O)C(Cc1cccc(C)c1I)NC(=O)CNCc1ccccc1 (stereo not given),< 0.0167 h
2,COc1cccc(CC2NC(=O)CN(Cc3ccccc3)C2=O)c1C (stereo not given),> 24 h
3,COc1cccc(CC2NC(=O)CN(Cc3ccccc3)C2=O)c1I (stereo not given),> 24 h

# System: Rattus norvegicus
# Test: Antiallodynic activity against spinal nerve ligation neuropathic pain rat model assessed as reduction in mechanical hypersensitivity at 3 mg/kg, ip measured at 1 hr by von frey test
# Type: functional, organism-based
# Conditions: not given
row,Compound,Activity
1,COc1cccc(CC2NC(=O)CN(Cc3ccccc3)C2=O)c1I (stereo not given),Active

# System: not listed separately
# Test: Plasma protein binding in dog assessed as bound fraction at 1 uM by LC-MS/MS analysis
# Type: ADME, cell-free, Canis lupus familiaris
# Conditions: not given
row,Compound,PPB
1,COc1cccc(CC2NC(=O)CN(Cc3ccccc3)C2=O)c1C (stereo not given),86.67%
2,COc1cccc(CC2NC(=O)CN(Cc3ccccc3)C2=O)c1I (stereo not given),86.15%

# System: not listed separately
# Test: Plasma protein binding in rat assessed as bound fraction at 1 uM by LC-MS/MS analysis
# Type: ADME, cell-free
# Conditions: not given
row,Compound,PPB
1,COc1cccc(CC2NC(=O)CN(Cc3ccccc3)C2=O)c1C (stereo not given),76.34%
2,COc1cccc(CC2NC(=O)CN(Cc3ccccc3)C2=O)c1I (stereo not given),91.24%

# System: Rattus norvegicus
# Test: Effect on emotional-affective response in spinal nerve ligation neuropathic pain rat model assessed as reduction in audible vocalizations at 3 mg/kg, ip measured at 1 hr by preamplifier based analysis
# Type: functional, organism-based
# Conditions: not given
row,Compound,Activity
1,NCC1(CC(=O)O)CCCCC1,Active
2,COc1cccc(CC2NC(=O)CN(Cc3ccccc3)C2=O)c1I (stereo not given),Active

# System: BEND3
# Test: Apparent permeability coefficient of the compound across blood brain barrier in mouse BEND3 cells at 10 ug/ml measured upto 120 mins by LC-MS/MS analysis
# Type: functional, cell-based
# Conditions: dose 10.0 µg/ml
row,Compound,Pe
1,Cn1c(=O)c2c(ncn2C)n(C)c1=O,28.1 10^-3cm/min
2,O=C1OC2(c3ccc(O)cc3Oc3cc(O)ccc32)c2ccccc21,0.95 10^-3cm/min
3,COC(=O)C(Cc1cccc(C)c1I)NC(=O)CNCc1ccccc1 (stereo not given),21.5 10^-3cm/min
4,COc1cccc(CC2NC(=O)CN(Cc3ccccc3)C2=O)c1C (stereo not given),5.99 10^-3cm/min
5,COc1cccc(CC2NC(=O)CN(Cc3ccccc3)C2=O)c1I (stereo not given),5.07 10^-3cm/min

# System: not listed separately
# Test: Metabolic stability in Beagle dog plasma assessed as half life at 100 uM measured upto 24 hrs by LC-MS/MS analysis
# Type: ADME, cell-free, Canis lupus familiaris
# Conditions: 24 h, 100 µM
row,Compound,t1/2
1,COC(=O)C(Cc1cccc(C)c1I)NC(=O)CNCc1ccccc1 (stereo not given),3.8202 h

# Same assay, conditions: Beagle
row,Compound,half-life at 100 µM
1,COc1cccc(CC2NC(=O)CN(Cc3ccccc3)C2=O)c1C (stereo not given),> 24 h
2,COc1cccc(CC2NC(=O)CN(Cc3ccccc3)C2=O)c1I (stereo not given),> 24 h

# System: Rattus norvegicus
# Test: Effect on emotional-affective response in spinal nerve ligation neuropathic pain rat model assessed as reduction in ultrasonic vocalizations at 3 mg/kg, ip measured at 1 hr by preamplifier based analysis
# Type: functional, organism-based
# Conditions: not given
row,Compound,Activity
1,NCC1(CC(=O)O)CCCCC1,Active
2,COc1cccc(CC2NC(=O)CN(Cc3ccccc3)C2=O)c1I (stereo not given),Active

# Molecular target: Delta-type opioid receptor (Homo sapiens, UniProt P41143)
# Sequence (P41143 whole entry): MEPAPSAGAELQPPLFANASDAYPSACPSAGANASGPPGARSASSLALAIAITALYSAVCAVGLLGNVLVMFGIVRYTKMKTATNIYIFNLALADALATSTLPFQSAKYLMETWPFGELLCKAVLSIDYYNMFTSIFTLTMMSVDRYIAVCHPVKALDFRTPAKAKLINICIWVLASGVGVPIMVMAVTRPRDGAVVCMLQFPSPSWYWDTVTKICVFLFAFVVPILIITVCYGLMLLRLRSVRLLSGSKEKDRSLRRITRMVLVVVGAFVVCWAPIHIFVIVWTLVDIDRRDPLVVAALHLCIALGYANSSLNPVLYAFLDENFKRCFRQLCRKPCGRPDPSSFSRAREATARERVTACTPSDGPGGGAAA
# Test: Displacement of [3H]DADLE from human DOR expressed in CHO cell membranes assessed as inhibition constant incubated for 60 mins by microbeta 2 scintillation counting method
# Set-up: species or system Cell membrane
# Conditions: not given
row,Compound,Ki
1,Cc1cccc(CC2NC(=O)CN(Cc3ccccc3)C2=O)c1I (stereo not given),> 10 µM
2,COC(=O)C(Cc1cccc(C)c1I)NC(=O)CNCc1ccccc1 (stereo not given),> 10 µM
3,COC(=O)C(Cc1cc(OC)cc(OC)c1I)NC(=O)CNCc1ccccc1 (stereo not given),> 10 µM
4,COC(=O)C(Cc1ccccc1I)NC(=O)CN(Cc1ccccc1)C(=O)OC(C)(C)C (stereo not given) (Boc-[Nphe]-[ξPhe(2-I)]-OMe),> 10 µM
5,COC(=O)C(Cc1cccc(OC)c1)NC(=O)CNCc1ccccc1 (stereo not given) (H-[Nphe]-[ξPhe(3-OMe)]-OMe),> 10 µM
6,COc1cccc(CC2NC(=O)CN(Cc3ccccc3)C2=O)c1C (stereo not given),> 10 µM
7,COc1cccc(CC2NC(=O)CN(Cc3ccccc3)C2=O)c1I (stereo not given),> 10 µM
8,COc1cccc(CC2NC(=O)[C@H](Cc3ccccc3)NC2=O)c1I (stereo not given in full),> 10 µM

# System: not listed separately
# Test: In vivo inhibition of U50488-induced activation of KOR in C57BL/6 mouse assessed as reduction of occupancy on cold plate at 1 mg/kg, ip pre-treated with U50488 followed compound addition measured after 1 hr by TPPT assay (reference value: 67.28 +/- 10.8% )
# Type: functional
# Conditions: not given
row,Compound,inhibition in vivo at 1 mg/kg
1,COc1cccc(CC2NC(=O)CN(Cc3ccccc3)C2=O)c1I (stereo not given),10.3%

# System: not listed separately
# Test: Metabolic stability in CD-1 mouse plasma assessed as half life at 100 uM measured upto 24 hrs by LC-MS/MS analysis
# Type: ADME, cell-free
# Conditions: not given
row,Compound,half-life at 100 µM
1,COC(=O)C(Cc1cccc(C)c1I)NC(=O)CNCc1ccccc1 (stereo not given),< 0.0167 h
2,COc1cccc(CC2NC(=O)CN(Cc3ccccc3)C2=O)c1C (stereo not given),> 24 h
3,COc1cccc(CC2NC(=O)CN(Cc3ccccc3)C2=O)c1I (stereo not given),> 24 h

# Species: Homo sapiens
# Test: Selectivity ratio of Ki for displacement of [3H]DADLE from human DOR expressed in CHO cell membranes to Ki for displacement of [3H]U69593 from human KOR expressed in HEK cell membranes
# Conditions: not given
row,Compound,Ratio Ki
1,COC(=O)C(Cc1cccc(C)c1I)NC(=O)CNCc1ccccc1 (stereo not given),> 81
2,COc1cccc(CC2NC(=O)CN(Cc3ccccc3)C2=O)c1C (stereo not given),> 17
3,COc1cccc(CC2NC(=O)CN(Cc3ccccc3)C2=O)c1I (stereo not given),> 11

# Molecular target: Kappa-type opioid receptor (Homo sapiens, UniProt P41145)
# Sequence (P41145 whole entry): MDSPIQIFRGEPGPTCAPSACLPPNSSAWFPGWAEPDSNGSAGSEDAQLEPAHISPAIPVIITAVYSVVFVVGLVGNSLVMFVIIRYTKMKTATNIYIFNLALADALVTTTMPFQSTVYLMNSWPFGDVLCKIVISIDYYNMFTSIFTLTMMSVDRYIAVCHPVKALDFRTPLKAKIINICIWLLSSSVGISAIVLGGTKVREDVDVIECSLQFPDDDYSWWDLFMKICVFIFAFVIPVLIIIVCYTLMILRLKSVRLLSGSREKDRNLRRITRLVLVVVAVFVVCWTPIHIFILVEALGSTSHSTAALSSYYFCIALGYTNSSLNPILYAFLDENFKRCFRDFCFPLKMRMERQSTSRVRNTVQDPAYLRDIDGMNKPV
# Test: Displacement of [3H]U69593 from human KOR expressed in HEK cell membranes assessed as inhibition constant incubated for 60 mins by microbeta 2 scintillation counting method
# Set-up: species or system Cell membrane
# Conditions: not given
row,Compound,Ki
1,Cc1cccc(CC2NC(=O)CN(Cc3ccccc3)C2=O)c1I (stereo not given),> 10 µM
2,COC(=O)C(Cc1cccc(C)c1I)NC(=O)CNCc1ccccc1 (stereo not given),0.123 µM
3,COC(=O)C(Cc1cc(OC)cc(OC)c1I)NC(=O)CNCc1ccccc1 (stereo not given),> 10 µM
4,COC(=O)C(Cc1ccccc1I)NC(=O)CN(Cc1ccccc1)C(=O)OC(C)(C)C (stereo not given) (Boc-[Nphe]-[ξPhe(2-I)]-OMe),4.18 µM
5,COC(=O)C(Cc1cccc(OC)c1)NC(=O)CNCc1ccccc1 (stereo not given) (H-[Nphe]-[ξPhe(3-OMe)]-OMe),> 10 µM
6,COc1cccc(CC2NC(=O)CN(Cc3ccccc3)C2=O)c1C (stereo not given),0.6 µM
7,COc1cccc(CC2NC(=O)CN(Cc3ccccc3)C2=O)c1I (stereo not given),0.924 µM
8,COc1cccc(CC2NC(=O)[C@H](Cc3ccccc3)NC2=O)c1I (stereo not given in full),> 10 µM

# System: not listed separately
# Test: Metabolic stability in Sprague-Dawley rat liver microsomes assessed as intrinsic clearance at 100 uM measured upto 24 hrs in presence of NADPH by LC-MS/MS analysis
# Type: ADME, Microsome
# Conditions: not given
row,Compound,Intrinsic clearance
1,COC(=O)C(Cc1cccc(C)c1I)NC(=O)CNCc1ccccc1 (stereo not given),1889 µL/min/mg
2,COc1cccc(CC2NC(=O)CN(Cc3ccccc3)C2=O)c1C (stereo not given),337.2 µL/min/mg
3,COc1cccc(CC2NC(=O)CN(Cc3ccccc3)C2=O)c1I (stereo not given),381.8 µL/min/mg

# Species: Homo sapiens
# Test: Selectivity ratio of Ki for displacement of [3H]DAMGO from human MOR expressed in CHO cell membranes to Ki for displacement of [3H]U69593 from human KOR expressed in HEK cell membranes
# Conditions: not given
row,Compound,Ratio Ki
1,COC(=O)C(Cc1cccc(C)c1I)NC(=O)CNCc1ccccc1 (stereo not given),> 81
2,COc1cccc(CC2NC(=O)CN(Cc3ccccc3)C2=O)c1C (stereo not given),> 17
3,COc1cccc(CC2NC(=O)CN(Cc3ccccc3)C2=O)c1I (stereo not given),> 11
